Results from article PMC10789121, “Amine Basicity of Quinoline ATP Synthase Inhibitors Drives Antibacterial Activity against Pseudomonas aeruginosa” (ACS Medicinal Chemistry Letters, 2023).
Values after ≈ are worked out from the molar mass of the structure shown. Values joined by “and” are separate entries in the source; they are usually repeats but may differ in a detail not shown here. Equal entries are not always repeated. Where two headings read alike, the source gives them in different places.

How the values were obtained:
[1] = system: BAA 2109 (MDRPA clinical isolate); design: method as in PMID 37922420; conditions: cited from earlier work
[2] = system: PA electron transport chain; design: method as in PMID 37922420; conditions: previously determined; cited from earlier work
PA 9027 [3] = system: PA 9027; design: method as in PMID 37922420; conditions: cited from earlier work
[4] = system: PΔ6 (efflux knockout strain of PA); design: method as in PMID 37922420; conditions: cited from earlier work
[5] = system: BAA 2110 (MDRPA clinical isolate); design: method as in PMID 37922420; conditions: cited from earlier work
[6] = system: BAA 2108 (MDRPA clinical isolate); design: method as in PMID 37922420; conditions: cited from earlier work
PA ATP synthase [7] = target: T1, PA ATP synthase (Pseudomonas aeruginosa, UniProt Q9HT15); design: method as in PMID 37922420; conditions: previously determined; cited from earlier work
T1 construct: a whole operon plasmid that expresses; made in house; host or cells: Escherichia coli DK8 (K-12 strain lacking the unc operon) transformed with pASH20; used as inverted membrane vesicles, not purified

PA ATP synthase [8] = target: T1, PA ATP synthase; experiment: Inhibition of NADH-driven PA ATP synthesis activity in DK8/pASH20 inverted membrane vesicles (end-point luciferin/luciferase assay); type: biochemical; conditions: for IC50: PA ATP synthase IC50 (absolute), NADH-driven ATP synthesis, EC DK8/pASH20 inverted membrane vesicles
[9] = system: PA electron transport chain; experiment: Electron transport activity (ACMA fluorescence quenching) in PA 9027 inverted membrane vesicles; type: biochemical, Pseudomonas aeruginosa; conditions: for PA ETC IC50: PA 9027 inverted membrane vesicles
Excerpt: The assay for PA ATP synthase activity in EC DK8/pASH20 membrane vesicles requires a functional EC ETC, so potent inhibition of the EC ETC by any compound would interfere with the determination of its IC50 for PA ATP synthase. […] Furthermore, potent inhibition of PA ETC could be an alternative mechanism of action for the antibacterial activity of the current series.
(§1) Determination of electron transport activity. As previously described,11 inverted membrane vesicles from PA 9027 or E. coli DK8 pASH20 were added to HMK buffer containing 0.3 µg/mL 9-amino-6-chloro-2-methoxyacridine (ACMA) and 0-64 µg/mL test compound in DMSO. After measurement of baseline ACMA fluorescence for 60 s, redox-driven H+ pumping was initiated by addition of NADH to 0.8 mM, and fluorescence quenching was monitored for 120 s before addition of nigericin to 0.5 µg/mL. Relative activity is reported as the minimum fluorescence value normalized to the maximum fluorescence value following addition of nigericin.

[10] = system: EC electron transport chain; experiment: Electron transport activity (ACMA fluorescence quenching) in E. coli DK8 pASH20 inverted membrane vesicles; type: biochemical, Escherichia coli
Experimental: as §1

PA 9027 [11] = experiment: Antimicrobial susceptibility, broth microdilution MIC; type: cell-based; conditions: Pseudomonas aeruginosa, read-out: MIC PA 9027
Experimental: (§2) Pseudomonas aeruginosa (ATCC 9027), Drug-Resistant Pseudomonas aeruginosa from ATCC Panel MP-23 (BAA-2108, BAA-2109, BAA-2110), and Pseudomonas aeruginosa efflux knockout GKCW120 (PD6)14 provided by Zgurskaya and co-workers at the University of Oklahoma.
(§3) Antimicrobial Susceptibility Assay Procedure. Susceptibility testing was performed in biological triplicate, using the broth microdilution method as outlined by the Clinical and Laboratory Standards Institute. Briefly, minimum inhibitory concentrations (MIC) determinations were carried out in 96-well microtiter plates with 2-fold serial dilutions of the compounds from 0 […]
(§4) Briefly, to each well 1 µL of compound in DMSO, 89 µL of TSB, and 10 µL of bacterial inoculum, grown from frozen stock in 10 mL of TSB […]
(§5) for 4-6 hours, were added. […]
(§6) on a Biotek Synergy HTX Multi-mode plate reader. Data was processed by background subtracting the media absorbance and then normalizing the data to full bacterial growth with only vehicle.
(§7) MIC is defined as the lowest concentration of antibiotic or antibiotic/adjuvant combination that achieves ≥ 85% growth inhibition, which corresponds to no visible growth. […]

[12] = system: PΔ6 (efflux knockout strain of PA); experiment: as above; type: cell-based; conditions: Pseudomonas aeruginosa, read-out: MIC PΔ6
Experimental: as §2, §3, §4, §5, §6, §7

[13] = system: BAA 2110 (MDRPA clinical isolate); experiment: as above; type: cell-based, Pseudomonas aeruginosa; conditions: for MIC: Pseudomonas aeruginosa
Experimental: as §2, §3, §4, §5, §6, §7

[14] = system: BAA 2109 (MDRPA clinical isolate); experiment: as above; type: cell-based, Pseudomonas aeruginosa; conditions: for MIC: Pseudomonas aeruginosa
Experimental: as §2, §3, §4, §5, §6, §7

[15] = system: BAA 2108 (MDRPA clinical isolate); experiment: as above; type: cell-based, Pseudomonas aeruginosa; conditions: for MIC: Pseudomonas aeruginosa
Experimental: as §2, §3, §4, §5, §6, §7

[16] = design: method as in earlier work; conditions: value of the C2 functional group; cited from earlier work
[17] = Solubility in the assay medium; type: physicochemical; conditions: assay medium of the ATP synthesis inhibition assay; read-out: Solubility in the assay medium (poor/insoluble above this concentration)
[18] = BAA2110, >85% reduction in growth at OD 590 nm, n = 3, read-out: MIC BAA 2110
[19] = BAA2109, >85% reduction in growth at OD 590 nm, n = 3, read-out: MIC BAA 2109
[20] = BAA2108, >85% reduction in growth at OD 590 nm, n = 3, read-out: MIC BAA 2108
[21] = BAA2110, read-out: MIC BAA 2110
[22] = BAA2109, read-out: MIC BAA 2109
[23] = BAA2108, read-out: MIC BAA 2108
[24] = >85% reduction in growth at OD 590 nm, n = 3

SMILES	IC50 (PA ATP synthase [8])	% PA ETC Inhibition at 32 µg/mL [9] [%]	% EC ETC Inhibition at 4 µg/mL [10] [%]	MIC (PA 9027 [11]) [µg/mL]	MIC [12] [µg/mL]	PA ETC IC50 [9]	approximate pKa (NH+) of C2 side chain conjugate acid [16]	also measured
CSc1nc2ccccc2cc1CNCc1ccc(CN(C)C)cc1 [Compound 1]								MIC BAA 2109 [1]: 256 µg/mL (≈ 728 µM); PA ETC IC50 [2]: 29 µg/mL; MIC PA 9027 (PA 9027 [3]): >256 µg/mL; MIC PΔ6 [4]: 64 to 128 µg/mL; MIC BAA 2110 [5]: >256 µg/mL; MIC BAA 2108 [6]: 128 to 256 µg/mL; PA ATP synthase IC50 (PA ATP synthase [7]): 30 µg/mL
CN(C)Cc1ccc(CNCc2cc3ccccc3nc2SCc2ccccc2)cc1 [Compound 2]								MIC BAA 2109 [1]: >128 µg/mL; PA ETC IC50 [2]: 27 µg/mL; MIC PA 9027 (PA 9027 [3]): >128 µg/mL; MIC PΔ6 [4]: 16 µg/mL (≈ 37.4 µM); MIC BAA 2110 [5]: >128 µg/mL; MIC BAA 2108 [6]: 64 µg/mL (≈ 150 µM); IC50 (PA ATP synthase [7]): ~4.68 µM
CSc1nc2ccccc2cc1CNCCCN(C)C [Compound 5]	149 µM	54	9					
CN(C)CCCNCc1cc2ccccc2nc1SCc1ccccc1 [Compound 6]	16.4 µM		3	> 128	16	44 µg/mL	above 6	MIC [13, 18]: 32 µg/mL; MIC [14, 19]: 64 µg/mL; MIC [15, 20]: 64 µg/mL
CSc1nc2ccccc2cc1CNCCCCN(C)C [Compound 7]	224 µM	72	6					
CN(C)CCCCNCc1cc2ccccc2nc1SCc1ccccc1 [Compound 8]	2.63 µM		0	> 128	16	26 [26] μg/mL	> 6	MIC [13, 18]: 32 µg/mL; MIC [14, 19]: 64 µg/mL; MIC [15, 20]: 64 µg/mL
CSc1nc2ccccc2cc1CNCCCCCN(C)C [Compound 9]	59.8 µM	74	22					
CN(C)CCCCCNCc1cc2ccccc2nc1SCc1ccccc1 [Compound 10]	~5.08 µM and 5.08 µM		14	> 128	64	57 µg/mL	above 6	MIC [13, 18]: 64 µg/mL; MIC [14, 19]: 128 µg/mL; MIC [15, 20]: 64 µg/mL
CSc1nc2ccccc2cc1CNCc1ccc(N(C)C)cc1 [Compound 11]	14.8 µM		4				∼5	% PA ETC Inhibition at 4 µg/mL ([9]; 4 µg/mL): 20%
CN(C)c1ccc(CNCc2cc3ccccc3nc2SCc2ccccc2)cc1 [Compound 12]								PA ATP synthase inhibition (in words) (PA ATP synthase [8]; <4 μg/mL, IC50 could not be determined): potent PA ATP synthase inhibition at low concentrations; PA ETC inhibition (in words) [9]: displayed some PA and EC ETC; EC ETC inhibition (in words) [10]: displayed some PA and EC ETC; solubility [17]: ≤ 16 µg/mL
CCN1CCC(CCNCc2cc3ccccc3nc2SC)CC1 [Compound 13]	114 µM	74	20					
CCN1CCC(CCNCc2cc3ccccc3nc2SCc2ccccc2)CC1 [Compound 14]	2.38 µM		16	> 128	16	26 [26] μg/mL	above 6	MIC [13, 21]: 16 µg/mL; MIC [14, 22]: 64 µg/mL; MIC [15, 23]: 32 µg/mL
CSc1nc2ccccc2cc1CNCCC1CCN(C2CCCC2)CC1 [Compound 15]	54.7 µM		6			8.3 µg/mL		
c1ccc(CSc2nc3ccccc3cc2CNCCC2CCN(C3CCCC3)CC2)cc1 [Compound 16]	2.18 µM		9	> 128	8	14 [14] μg/mL	> 6	MIC BAA 2110 [13, 24]: inactive; MIC [13, 21]: > 128 µg/mL; MIC [14, 22]: 64 µg/mL; MIC [15, 23]: 32 µg/mL
CSc1nc2ccccc2cc1CNCCc1cccn1C [Compound 17]	16.1 µM	65	0				∼0.5	
Cn1cccc1CCNCc1cc2ccccc2nc1SCc1ccccc1 [Compound 18]	12.9 µM and 10.3 µM	62	5					
CSc1nc2ccccc2cc1CNCCc1nc(C)cc(C)n1 [Compound 19]	198 µM		1.3				∼1	% PA ETC Inhibition ([9]; concentration not given): 20%
Cc1cc(C)nc(CCNCc2cc3ccccc3nc2SCc2ccccc2)n1 [Compound 20]	7.24 µM	67	17					
CSc1nc2ccccc2cc1CNCCc1cnc[nH]1 [Compound 21]	53.6 µM		5			39 µg/mL	∼7	
c1ccc(CSc2nc3ccccc3cc2CNCCc2cnc[nH]2)cc1 [Compound 22]	~5.34 µM and 5.34 µM			> 128	16	15 µg/mL		MIC [13, 18]: > 128 µg/mL; MIC BAA 2109 [14, 24]: displayed antibacterial activity; MIC [14, 19]: 64 µg/mL; MIC BAA 2108 [15, 24]: displayed antibacterial activity; MIC [15, 20]: 32 µg/mL; EC ETC IC50 ([10]; E. coli DK8 pASH20 inverted membrane vesicles): 14 µg/mL
O=C(N[C@H](CO)[C@H](O)c1ccc([N+](=O)[O-])cc1)C(Cl)Cl [chloramphenicol, reference compound]					4			MIC (PA 9027 [11]; [24]): 128 µg/mL; MIC [13, 18]: 128 µg/mL; MIC [14, 19]: 128 µg/mL; MIC [15, 20]: 32 µg/mL
CNC(C)C1CCC(N)C(OC2C(N)CC(N)C(OC3OCC(C)(O)C(NC)C3O)C2O)O1 (stereo not shown) [gentamicin, reference compound]				2 to 4	> 4			MIC [13, 18]: 4 to 8 µg/mL; MIC [14, 19]: 2 µg/mL; MIC [15, 20]: 16 µg/mL
